In article doi:10.1101/2024.11.19.623840, “Targeting GOF p53 and c-MYC through LZK Inhibition or Degradation Suppresses Head and Neck Tumor Growth” (bioRxiv, 2024):

Tests used:
[1] = target: T1, LZK (leucine zipper-bearing kinase) (Homo sapiens, UniProt O43283); assay: KdELECT KINOMEscan competition binding assay
T1 construct: gene MAP3K13
T1 sequence (O43283 1-966): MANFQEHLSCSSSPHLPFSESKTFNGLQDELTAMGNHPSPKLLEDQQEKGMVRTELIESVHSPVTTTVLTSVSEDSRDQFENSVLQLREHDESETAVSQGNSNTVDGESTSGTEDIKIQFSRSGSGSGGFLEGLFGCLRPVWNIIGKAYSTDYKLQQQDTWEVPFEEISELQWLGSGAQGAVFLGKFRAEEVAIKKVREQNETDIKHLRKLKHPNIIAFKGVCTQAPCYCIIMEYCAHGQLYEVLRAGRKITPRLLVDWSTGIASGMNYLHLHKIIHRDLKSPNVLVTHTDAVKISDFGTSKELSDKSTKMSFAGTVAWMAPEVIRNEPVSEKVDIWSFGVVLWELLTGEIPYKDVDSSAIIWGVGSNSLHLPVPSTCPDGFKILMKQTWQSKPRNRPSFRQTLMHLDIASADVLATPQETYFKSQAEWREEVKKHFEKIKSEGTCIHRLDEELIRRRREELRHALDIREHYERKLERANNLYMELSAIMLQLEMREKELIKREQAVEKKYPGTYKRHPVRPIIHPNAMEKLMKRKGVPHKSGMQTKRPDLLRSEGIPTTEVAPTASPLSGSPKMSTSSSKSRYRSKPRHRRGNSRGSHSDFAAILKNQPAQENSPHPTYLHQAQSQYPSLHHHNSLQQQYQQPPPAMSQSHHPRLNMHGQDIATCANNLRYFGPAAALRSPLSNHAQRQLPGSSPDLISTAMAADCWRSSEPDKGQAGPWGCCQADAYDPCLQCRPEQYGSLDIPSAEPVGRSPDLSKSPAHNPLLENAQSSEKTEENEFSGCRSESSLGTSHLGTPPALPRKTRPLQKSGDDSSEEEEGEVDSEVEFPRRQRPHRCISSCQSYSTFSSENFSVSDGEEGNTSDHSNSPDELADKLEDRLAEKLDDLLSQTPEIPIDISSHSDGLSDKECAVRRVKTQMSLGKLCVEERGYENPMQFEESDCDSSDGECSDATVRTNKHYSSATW

[2] = target: T1, LZK (leucine zipper-bearing kinase); assay: LZK degradation Western blot in CAL33 cells with dox-induced LZK; format: cell-based

| SMILES | Kd [1] | LZK degradation Western blot in CAL33 cells with dox-induced LZK [2] |
| --- | --- | --- |
| Cc1ncsc1-c1ccc([C@H](C)NC(=O)[C@@H]2C[C@@H](O)CN2C(=O)[C@@H](NC(=O)CCCCCCC(=O)N2CCC(c3cc(Nc4cc(C#N)ccn4)nc(N4CCC(F)(F)C4)c3)CC2)C(C)(C)C)cc1 [PROTAC-21A] | 35 nM |  |
| N#Cc1ccnc(Nc2cc(C3CCN(C(=O)CCCCCCC(=O)NCCCCNC(=O)CNc4cccc5c4C(=O)N(C4CCC(=O)NC4=O)C5=O)CC3)cc(N3CCC(F)(F)C3)n2)c1 (stereo not shown) [PROTAC-21B] |  | PROTAC-21B, PROTAC-21C and PROTAC-21D (Figure 5B) also promoted degradation of LZK at higher concentrations |
| Cc1ncsc1-c1ccc([C@H](C)NC(=O)[C@@H]2C[C@@H](O)CN2C(=O)[C@@H](NC(=O)c2cncc(C(=O)N3CCC(c4cc(Nc5cc(C#N)ccn5)nc(N5CCC(F)(F)C5)c4)CC3)c2)C(C)(C)C)cc1 [PROTAC-21C] |  | PROTAC-21B, PROTAC-21C and PROTAC-21D (Figure 5B) also promoted degradation of LZK at higher concentrations |
| N#Cc1ccnc(Nc2cc(C3CCN(C(=O)c4cncc(C(=O)NCCCCNC(=O)CNc5cccc6c5C(=O)N(C5CCC(=O)NC5=O)C6=O)c4)CC3)cc(N3CCC(F)(F)C3)n2)c1 (stereo not shown) [PROTAC-21D] |  | PROTAC-21B, PROTAC-21C and PROTAC-21D (Figure 5B) also promoted degradation of LZK at higher concentrations |
